Reference: paper PMC4666608, “Metabolic Profiling of Chicken Embryos Exposed to Perfluorooctanoic Acid (PFOA) and Agonists to Peroxisome Proliferator-Activated Receptors” (PLoS ONE, 2015)
Where “and” joins values, the source holds several entries; their conditions need not be identical. Equal entries are not always repeated.

Tested on: chicken embryos
Test: Plasma lipids (total, LDL, HDL cholesterol, triacylglycerols), photometric
Details: for HDL-C in plasma, mean ± SD / LDL-C in plasma, mean ± SD / LDL/HDL in plasma, mean ± SD / Total cholesterol in plasma, mean ± SD / Triacylglycerols in plasma, mean ± SD: E12; for LDL/HDL: plasma
Experimental: The experimental procedures in this study were approved by the Uppsala Ethical Committee for Research on Animals (Permit number C 211/12). Fertilized chicken eggs (Gallus gallus domesticus) were obtained from a local breeder (Ova Production AB, Vittinge, Sweden). The egg weights were 60 ± 4 g (mean and standard deviation). The eggs were incubated at 37.5°C and 60% relative humidity with automatic turning every six hours. The day the eggs were placed in the incubator was defined as embryonic day zero (E0). Chicken embryos were exposed to test substances by air sac injection in eggs incubated for seven days (E7). At this stage, the extraembryonic allantoic blood vessel network has grown to cover the inner shell membrane beneath the air sac and the injected substance will come in direct contact with the vascular network. The exposures were performed as follows: Unfertilized eggs and poorly developing embryos were recognized by candling and were sorted out. Eggs with embryos of normal size were collected and randomly distributed into the different treatment groups. On E7, the blunt end of each egg was wiped with alcohol and a small hole was drilled through the shell above the air sac. The dissolved test substance (20 μl) was deposited onto the inner shell membrane in the air sac and the hole was sealed with melted paraffin wax. Following injection, eggs were held horizontally and rotated for a few seconds to allow dispersal over the inner shell membrane in the air sac. Each egg was marked with a number specifying the treatment group and was placed at a random location in the incubator.
The doses were 150 μg/egg (approximately 2.5 mg/kg egg) for GW7647 and rosiglitazone and 50, 250 or 1000 μg/egg for PFOA (approximately 0.83, 4.2 and 18 mg/kg egg, respectively). Controls were injected with 20 μL vehicle only (DMSO). Due to the large number of embryos required, the experiment was divided into four replicate experiments (replicate A-D) performed the same way but on separate occasions. The number of exposed embryos was 10–15 for each treatment group and replicate.
A subset of randomly chosen embryos from each group (except the 1000 μg/egg group) was sampled for metabolomic analysis of allantoic fluid and blood plasma. Samples of allantoic fluid and blood were collected before decapitation and dissection of the embryo as described below. The egg shell was removed above the air cell without disrupting the inner shell membrane. Allantoic fluid was collected by gently inserting a needle through the inner shell membrane and into the allantoic sac and then aspiring the fluid with a syringe. The samples were placed in microtubes on ice during sampling and then stored at -70°C until processed for metabolomic analysis. Blood was collected from the allantoic artery, just proximal to its first branch. The artery was gently cleaned from membranes, lifted with a small spoon and then punctured with a needle. Blood flowing into the spoon was immediately collected with heparinized capillaries. Blood was stored in heparinized microtubes on ice during sampling and was then centrifuged at a speed of 1300g for 10 min at 4°C. Plasma was collected and stored at -70°C. The embryos were killed by decapitation and dissected immediately following blood sampling.
Total cholesterol, low-density lipoprotein (LDL) cholesterol, high-density lipoprotein (HDL) cholesterol, and triacylglycerols in plasma were analyzed with an Architect c8000 (Abbott Diagnostics, Abbott Park, IL, USA), using a photometric method, at the department of Clinical Chemistry and Pharmacology, Uppsala University Hospital, Sweden. The laboratory is accredited according to EN/ISO 15189 medical laboratory requirements. A total of 80 samples were analyzed; control: 7 females and 8 males; GW7647: 7 females and 8 males; rosiglitazone: 5 females and 12 males; 50 μg PFOA/egg: 11 females and 6 males; 250 μg PFOA/egg: 10 females and 6 males.

[1] = group PFOA 50 (µg/egg), group mean
[2] = group PFOA 50 (µg/egg), individual embryos
[3] = group PFOA 250 (µg/egg), group mean
[4] = group PFOA 250 (µg/egg), individual embryos

SMILES: CC(C)(Sc1ccc(CCN(CCCCC2CCCCC2)C(=O)NC2CCCCC2)cc1)C(=O)O [GW7647, reference compound]
- HDL-C in plasma, mean ± SD (150 μg/egg): 0.63 ± 0.05 mM
- LDL-C in plasma, mean ± SD (150 μg/egg): 1.5 ± 0.2 mM
- LDL/HDL in plasma, mean ± SD (150 μg/egg): 2.4 ± 0.4
- Total cholesterol in plasma, mean ± SD (150 μg/egg): 5.5 ± 0.3 mM
- Triacylglycerols in plasma, mean ± SD (150 μg/egg): 4.9 ± 0.7 mM

SMILES: O=C(O)C(F)(F)C(F)(F)C(F)(F)C(F)(F)C(F)(F)C(F)(F)C(F)(F)F [PFOA, perfluorooctanoic acid]
- HDL-C in plasma, mean ± SD (PFOA 50 μg/egg): 0.59 ± 0.06 mM
- LDL-C in plasma, mean ± SD (PFOA 50 μg/egg): 1.5 ± 0.2 mM
- LDL/HDL in plasma, mean ± SD (PFOA 50 μg/egg): 2.5 ± 0.3
- Total cholesterol in plasma, mean ± SD (PFOA 50 μg/egg): 5.2 ± 0.8 mM
- Triacylglycerols in plasma, mean ± SD (PFOA 50 μg/egg): 5.0 ± 0.8 mM
- HDL-C in plasma, mean ± SD (PFOA 250 μg/egg): 0.57 ± 0.05 mM
- LDL-C in plasma, mean ± SD (PFOA 250 μg/egg): 1.5 ± 0.3 mM
- LDL/HDL in plasma, mean ± SD (PFOA 250 μg/egg): 2.6 ± 0.5
- Total cholesterol in plasma, mean ± SD (PFOA 250 μg/egg): 5.0 ± 0.5 mM
- Triacylglycerols in plasma, mean ± SD (PFOA 250 μg/egg): 5.0 ± 0.7 mM
- HDL-Cholesterol in plasma [1]: 0.59 mM
- LDL-Cholesterol in plasma [1]: 1.5 mM
- Total Cholesterol in plasma [1]: 5.2 mM
- Triacylglycerols in plasma [1]: 5.0 mM
- LDL/HDL [1]: 2.5
- HDL-Cholesterol in plasma [2]: 0.63 mM and 0.53 mM and 0.55 mM and 0.69 mM and 0.59 mM and 0.56 mM and 0.65 mM and 0.49 mM and 0.62 mM and 0.64 mM and 0.48 mM and 0.58 mM
- LDL-Cholesterol in plasma [2]: 1.90 mM and 1.20 mM and 1.50 mM and 1.80 mM and 1.40 mM and 1.30 mM and 1.60 mM and 1.00 mM
- Total Cholesterol in plasma [2]: 6 mM and 4.6 mM and 5.1 mM and 5.7 mM and 5.9 mM and 5 mM and 5.4 mM and 6.1 mM and 3.8 mM and 5.3 mM and 4.3 mM and 4.2 mM and 4.1 mM
- Triacylglycerols in plasma [2]: 6 mM and 4.8 mM and 5.1 mM and 5.7 mM and 5 mM and 4.9 mM and 5.4 mM and 4.5 mM and 6.2 mM and 4.2 mM and 3.6 mM and 3.5 mM
- LDL/HDL [2]: 3.0 and 2.3 and 2.7 and 2.9 and 2.2 and 2.4 and 2.1 and 2.0 and 2.6 and 3.1 and 2.5
- HDL-Cholesterol in plasma [3]: 0.57 mM
- LDL-Cholesterol in plasma [3]: 1.5 mM
- Total Cholesterol in plasma [3]: 5.0 mM
- Triacylglycerols in plasma [3]: 5.0 mM
- LDL/HDL [3]: 2.6
- HDL-Cholesterol in plasma [4]: 0.52 mM and 0.54 mM and 0.49 mM and 0.56 mM and 0.55 mM and 0.57 mM and 0.51 mM and 0.64 mM and 0.58 mM and 0.61 mM and 0.63 mM and 0.53 mM and 0.6 mM
- LDL-Cholesterol in plasma [4]: 2.20 mM and 1.40 mM and 1.50 mM and 1.10 mM and 1.20 mM and 1.80 mM and 1.30 mM and 1.70 mM and 1.60 mM
- Total Cholesterol in plasma [4]: 5.2 mM and 4 mM and 4.9 mM and 5.7 mM and 5 mM and 5.4 mM and 4.2 mM and 4.4 mM and 4.7 mM and 5.1 mM
- Triacylglycerols in plasma [4]: 5.1 mM and 5.7 mM and 3.8 mM and 4.5 mM and 6 mM and 4.7 mM and 5.4 mM and 4.8 mM and 4.2 mM and 4.9 mM
- LDL/HDL [4]: 4.2 and 2.6 and 2.9 and 2.7 and 2.0 and 2.4 and 2.8 and 2.1 and 1.7 and 2.2

SMILES: CN(CCOc1ccc(CC2SC(=O)NC2=O)cc1)c1ccccn1 (centres unmarked) [Rosiglitazone, rosiglitazone, reference compound]
- HDL-C in plasma, mean ± SD (150 μg/egg): 0.60 ± 0.06 mM
- LDL-C in plasma, mean ± SD (150 μg/egg): 1.5 ± 0.2 mM
- LDL/HDL in plasma, mean ± SD (150 μg/egg): 2.5 ± 0.4
- Total cholesterol in plasma, mean ± SD (150 μg/egg): 5.2 ± 0.4 mM
- Triacylglycerols in plasma, mean ± SD (150 μg/egg): 5.4 ± 0.8 mM
- HDL-Cholesterol in plasma (group mean): 0.60 mM
- LDL-Cholesterol in plasma (group mean): 1.5 mM
- Total Cholesterol in plasma (group mean): 5.2 mM
- Triacylglycerols in plasma (group mean): 5.4 mM
- LDL/HDL (group mean): 2.5
- HDL-Cholesterol in plasma (individual embryos): 0.65 mM and 0.59 mM and 0.53 mM and 0.58 mM and 0.55 mM and 0.71 mM and 0.6 mM and 0.7 mM and 0.57 mM and 0.51 mM and 0.69 mM and 0.52 mM and 0.61 mM
- LDL-Cholesterol in plasma (individual embryos): 2.00 mM and 1.70 mM and 1.20 mM and 1.50 mM and 1.10 mM and 1.60 mM and 1.40 mM and 1.00 mM and 1.80 mM
- Total Cholesterol in plasma (individual embryos): 5.8 mM and 4.8 mM and 4.1 mM and 5.4 mM and 4.9 mM and 5.5 mM and 5.9 mM and 5.2 mM and 5.3 mM and 5 mM and 5.6 mM
- Triacylglycerols in plasma (individual embryos): 4.5 mM and 4.3 mM and 4.7 mM and 6 mM and 5 mM and 5.3 mM and 5.6 mM and 4.6 mM and 7.1 mM and 6.3 mM and 6.4 mM and 5.5 mM
- LDL/HDL (individual embryos): 3.1 and 2.9 and 2.3 and 2.6 and 2.7 and 2.1 and 2.8 and 1.7 and 2.5 and 2.0 and 2.2 and 3.0 and 3.5
